Measurements taken from the supplement of paper PMC10307832.

Experiments:
Assay in all cases: relative viability (nuclei count vs DMSO), 5 days (fraction); higher = more cells survive
[1] = compound: CN(c1ncccc1CNc1nc(Nc2ccc3c(c2)CC(=O)N3)ncc1C(F)(F)F)S(C)(=O)=O + CC1(C)CCC(c2ccc(Cl)cc2)=C(CN2CCN(c3ccc(C(=O)NS(=O)(=O)c4ccc(N[C@H](CCN5CCOCC5)CSc5ccccc5)c(S(=O)(=O)C(F)(F)F)c4)cc3)CC2)C1 [Navitoclax] (partner 0.5 µM)
In short: (§1)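 Medians of duplicate plates are given as relative viability. That measure is the nuclei count in treated wells divided by the count in vehicle wells. Counts were taken on 4× images of lung cancer cell lines in 1536-well plates, 5 days after pin-tool dosing the day after seeding with one drug alone or a fixed anchor-drug dose plus five library-drug doses (not always all listed) in √10 steps.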

[2] = compound: CN(c1ncccc1CNc1nc(Nc2ccc3c(c2)CC(=O)N3)ncc1C(F)(F)F)S(C)(=O)=O + C[C@]1(O)C[C@@H](c2nc(-c3ccc4ccc(-c5ccccc5)nc4c3)c3c(N)nccn32)C1 [Linsitinib] (partner 1 µM)
In short: as §1

[3] = compound: CN(c1ncccc1CNc1nc(Nc2ccc3c(c2)CC(=O)N3)ncc1C(F)(F)F)S(C)(=O)=O + Cc1nc(NC(=O)N2CCC[C@H]2C(N)=O)sc1-c1ccnc(C(C)(C)C(F)(F)F)c1 [Alpelisib] (partner 2 µM)
In short: as §1

[4] = compound: CN(c1ncccc1CNc1nc(Nc2ccc3c(c2)CC(=O)N3)ncc1C(F)(F)F)S(C)(=O)=O + O=C(CCCCCCC(=O)Nc1ccccc1)NO [Vorinostat] (partner 1 µM)
In short: as §1

IA-LM
relative viability ([1]; first compound 0.01 µM): 0.712
relative viability ([1]; first compound 0.03162 µM): 0.726
relative viability ([1]; first compound 0.1 µM): 0.786
relative viability ([1]; first compound 0.3162 µM): 0.788
relative viability ([1]; first compound 1 µM): 0.654
relative viability ([2]; first compound 0.01 µM): 0.6
relative viability ([2]; first compound 0.03162 µM): 0.54
relative viability ([2]; first compound 0.1 µM): 0.583
relative viability ([2]; first compound 1 µM): 0.599
relative viability ([3]; first compound 0.01 µM): 0.631
relative viability ([3]; first compound 0.03162 µM): 0.884
relative viability ([3]; first compound 0.1 µM): 0.637
relative viability ([3]; first compound 0.3162 µM): 0.649
relative viability ([3]; first compound 1 µM): 0.688
relative viability ([4]; first compound 0.01 µM): 0.991
relative viability ([4]; first compound 0.03162 µM): 1.12
relative viability ([4]; first compound 0.1 µM): 0.801
relative viability ([4]; first compound 0.3162 µM): 0.859
relative viability ([4]; first compound 1 µM): 0.86

H3255
relative viability ([1]; first compound 0.01 µM): 0.606
relative viability ([1]; first compound 0.03162 µM): 0.518
relative viability ([1]; first compound 0.1 µM): 0.616
relative viability ([1]; first compound 0.3162 µM): 0.475
relative viability ([1]; first compound 1 µM): 0.35
relative viability ([2]; first compound 0.01 µM): 0.924
relative viability ([2]; first compound 0.03162 µM): 0.949
relative viability ([2]; first compound 0.1 µM): 0.988
relative viability ([2]; first compound 0.3162 µM): 0.912
relative viability ([2]; first compound 1 µM): 0.922
relative viability ([3]; first compound 0.01 µM): 1.04
relative viability ([3]; first compound 0.03162 µM): 0.853
relative viability ([3]; first compound 0.1 µM): 0.617
relative viability ([3]; first compound 0.3162 µM): 0.468
relative viability ([3]; first compound 1 µM): 0.772
relative viability ([4]; first compound 0.01 µM): 0.881
relative viability ([4]; first compound 0.03162 µM): 0.931
relative viability ([4]; first compound 0.1 µM): 0.767
relative viability ([4]; first compound 0.3162 µM): 0.796
relative viability ([4]; first compound 1 µM): 0.743

LOU-NH91
relative viability ([1]; first compound 0.01 µM): 0.695
relative viability ([1]; first compound 0.03162 µM): 0.751
relative viability ([1]; first compound 0.1 µM): 0.772
relative viability ([1]; first compound 0.3162 µM): 0.762
relative viability ([1]; first compound 1 µM): 0.793
relative viability ([2]; first compound 0.01 µM): 0.988
relative viability ([2]; first compound 0.03162 µM): 1.02
relative viability ([2]; first compound 0.1 µM): 1.02
relative viability ([2]; first compound 0.3162 µM): 1.08
relative viability ([2]; first compound 1 µM): 1.11
relative viability ([3]; first compound 0.01 µM): 0.75
relative viability ([3]; first compound 0.03162 µM): 0.792
relative viability ([3]; first compound 0.1 µM): 0.703
relative viability ([3]; first compound 0.3162 µM): 0.771
relative viability ([3]; first compound 1 µM): 0.762
relative viability ([4]; first compound 0.01 µM): 0.957
relative viability ([4]; first compound 0.03162 µM): 0.99
relative viability ([4]; first compound 0.1 µM): 0.852
relative viability ([4]; first compound 0.3162 µM): 0.907
relative viability ([4]; first compound 1 µM): 0.976

NCI-H3122
relative viability ([1]; first compound 0.01 µM): 1.07
relative viability ([1]; first compound 0.03162 µM): 1.01
relative viability ([1]; first compound 0.1 µM): 0.941
relative viability ([1]; first compound 0.3162 µM): 0.977
relative viability ([1]; first compound 1 µM): 0.936
relative viability ([2]; first compound 0.01 µM): 1.02
relative viability ([2]; first compound 0.03162 µM): 1.06
relative viability ([2]; first compound 0.1 µM): 0.939
relative viability ([2]; first compound 0.3162 µM): 0.966
relative viability ([2]; first compound 1 µM): 0.843
relative viability ([3]; first compound 0.01 µM): 0.748
relative viability ([3]; first compound 0.03162 µM): 0.982
relative viability ([3]; first compound 0.1 µM): 0.684
relative viability ([3]; first compound 0.3162 µM): 0.822
relative viability ([3]; first compound 1 µM): 0.728
relative viability ([4]; first compound 0.01 µM): 1.03
relative viability ([4]; first compound 0.03162 µM): 0.963
relative viability ([4]; first compound 0.1 µM): 1.04
relative viability ([4]; first compound 0.3162 µM): 1
relative viability ([4]; first compound 1 µM): 1.06

PC-3 [JPC-3]
relative viability ([1]; first compound 0.01 µM): 0.821
relative viability ([1]; first compound 0.03162 µM): 0.863
relative viability ([1]; first compound 0.1 µM): 0.823
relative viability ([1]; first compound 0.3162 µM): 0.833
relative viability ([1]; first compound 1 µM): 0.787
relative viability ([2]; first compound 0.01 µM): 0.984
relative viability ([2]; first compound 0.03162 µM): 1.01
relative viability ([2]; first compound 0.1 µM): 0.938
relative viability ([2]; first compound 0.3162 µM): 0.925
relative viability ([2]; first compound 1 µM): 0.835
relative viability ([3]; first compound 0.01 µM): 0.993
relative viability ([3]; first compound 0.03162 µM): 1.14
relative viability ([3]; first compound 0.1 µM): 0.941
relative viability ([3]; first compound 0.3162 µM): 1.02
relative viability ([3]; first compound 1 µM): 0.952
relative viability ([4]; first compound 0.01 µM): 0.826
relative viability ([4]; first compound 0.1 µM): 0.775
relative viability ([4]; first compound 0.3162 µM): 0.795
relative viability ([4]; first compound 1 µM): 0.753

NCI-H1651
relative viability ([1]; first compound 0.01 µM): 1.07
relative viability ([1]; first compound 0.03162 µM): 1
relative viability ([1]; first compound 0.1 µM): 1.21
relative viability ([1]; first compound 0.3162 µM): 0.867
relative viability ([1]; first compound 1 µM): 0.976
relative viability ([2]; first compound 0.01 µM): 0.996
relative viability ([2]; first compound 0.03162 µM): 0.999
relative viability ([2]; first compound 0.1 µM): 1.25
relative viability ([2]; first compound 0.3162 µM): 0.994
relative viability ([2]; first compound 1 µM): 0.993
relative viability ([3]; first compound 0.01 µM): 0.992
relative viability ([3]; first compound 0.03162 µM): 1
relative viability ([3]; first compound 0.1 µM): 0.873
relative viability ([3]; first compound 0.3162 µM): 0.899
relative viability ([3]; first compound 1 µM): 0.916
relative viability ([4]; first compound 0.01 µM): 0.565
relative viability ([4]; first compound 0.03162 µM): 0.566
relative viability ([4]; first compound 0.1 µM): 0.535
relative viability ([4]; first compound 0.3162 µM): 0.568
relative viability ([4]; first compound 1 µM): 0.571

NCI-H2087
relative viability ([1]; first compound 0.01 µM): 1.06
relative viability ([1]; first compound 0.03162 µM): 1.12
relative viability ([1]; first compound 0.1 µM): 1.05
relative viability ([1]; first compound 0.3162 µM): 1.04
relative viability ([1]; first compound 1 µM): 0.937
relative viability ([2]; first compound 0.01 µM): 1.03
relative viability ([2]; first compound 0.03162 µM): 1.04
relative viability ([2]; first compound 0.1 µM): 1.14
relative viability ([2]; first compound 0.3162 µM): 1.16
relative viability ([2]; first compound 1 µM): 0.99
relative viability ([3]; first compound 0.01 µM): 1.14
relative viability ([3]; first compound 0.03162 µM): 1.18
relative viability ([3]; first compound 0.1 µM): 1.11
relative viability ([3]; first compound 0.3162 µM): 1.12
relative viability ([3]; first compound 1 µM): 1.19
relative viability ([4]; first compound 0.01 µM): 0.722
relative viability ([4]; first compound 0.03162 µM): 0.872
relative viability ([4]; first compound 0.1 µM): 0.901
relative viability ([4]; first compound 0.3162 µM): 0.613
relative viability ([4]; first compound 1 µM): 0.589
